Reference: US4153709A, “N-Heterocyclic ureas as immune regulants” (Eli Lilly and Company, priority 1977, dated 1979)

These compounds were tested on antibody response to sheep blood cells (hemaglutination titer) (assay: Immune regulating test: suppression of hemaglutination titer by 4-fold factor in mice (i.p. drug, i.p. sheep blood cells), Tables 1-15). Conditions: Mus musculus, ip, 192 h, × 3, intraperitoneal, minimum dose to suppress the hemaglutination titer by a 4-fold factor, 8 days after antigen, read-out: Immuno-Suppressant ED4-Fold.
Format: in vivo, Swiss mice
Method: The ability of compounds according to the above formulas to alter immune mechanisms in a host animal was measured by their activity according to the following test. Groups of five 20-gram Swiss mice were injected intraperitoneally with standardized suspensions of an antigen--in this instance sheep blook cells. […] Eight days after injection of the antigen, the mice were bled and the sera from each group pooled. Antibody determinations were made on the serum pools by a hemaglutination pattern procedure and comparisons made between treated and control animals. In Tables 1-18 which follow, the activity of the compounds listed therein is given in terms of the minimum dose of drug necessary to suppress the hemaglutination titer by a 4-fold factor in the treated mice as compared with control titers.

| Structure (SMILES) | minimal effective dose [mg/kg] |
| --- | --- |
| O=C(Nc1ccccc1)Nc1nc2cc(Cl)ccc2o1 [Table 11: phenyl, 5-Cl, O] | 200 |
| Cc1ccccc1NC(=O)Nc1nc2cc(Cl)ccc2[nH]1 [Table 2: o-tolyl] | 100 |
| O=C(Nc1cccc(C(F)(F)F)c1)Nc1nc2ccccc2s1 [Table 11: m-trifluoromethylphenyl, H, S] | < 50 |
| COc1ccc2nc(NC(=O)Nc3ccccc3Cl)sc2c1 [Table 11: o-chlorophenyl, 6-CH3 O, S] | < 50 |
| COc1ccc2nc(NC(=O)Nc3cccc(C)c3)sc2c1 [Table 11: m-tolyl, 6-CH3 O, S] | < 25 |
| CCOc1ccccc1NC(=O)Nc1nc2ccccc2s1 [Table 11: o-ethoxyphenyl, H, S] | < 50 |
| COc1ccc(NC(=O)Nc2nc3ccccc3s2)cc1 [Table 11: p-anisyl, H, S] | 50 |
| Cc1cc2nc(NC(=O)Nc3ccc(Cl)c(Cl)c3)sc2cc1C | 50 |
| O=C(Nc1cccc(Cl)c1)Nc1nc2c(ccc3ccccc32)s1 [Table 14: m-chlorophenyl] | < 1.6 |
| COc1ccc2nc(NC(=O)Nc3cccc4ccccc34)sc2c1 [Table 11: α-naphthyl, 6-CH3 O, S] | < 50 |
| O=C(Nc1cccc(Cl)c1)Nc1nc2ccccc2s1 [Table 11: m-chlorophenyl, H, S] | 1.6 |
| Cc1cc2nc(NC(=O)Nc3cccc(C(F)(F)F)c3)sc2cc1C | 25 |
| O=C(Nc1ccccc1)Nc1nc2cc(C(F)(F)F)ccc2[nH]1 [Table 4: phenyl, CF3] | 12.5 |
| Cc1cc2nc(NC(=O)Nc3ccccc3C)sc2cc1C [Table 11: o-tolyl, 5,6-dimethyl, S] | < 25 |
| O=C(Nc1ccc(F)cc1)Nc1nc2ccccc2[nH]1 [Table 1: p-fluorophenyl, H] | 6.2 |
| Cc1cc2nc(NC(=O)Nc3ccc(Cl)cc3)[nH]c2cc1C [Table 5: p-chlorophenyl, CH3, CH3] | 12.5 |

| Structure (SMILES) | minimal effective dose [mg/kg] |
| --- | --- |
| Cc1ccc(NC(=O)Nc2nc3ccc4ccccc4c3s2)cc1 [Table 15: p-tolyl] | > 25 |
| CCOC(=O)c1ccc2[nH]c(NC(=O)Nc3cccc(C(F)(F)F)c3)nc2c1 [Table 3: m-trifluoromethylphenyl] | 100 |
| CCOC(=O)c1ccc2[nH]c(NC(=O)Nc3ccccc3)nc2c1 [Table 3: phenyl] | < 25 |
| O=C(Nc1nc2c(ccc3ccccc32)s1)Nc1ccccc1F [Table 14: o-fluorophenyl] | 3.1 |
| O=C(Nc1ccc(Br)cc1)Nc1nc2c(ccc3ccccc32)s1 [Table 14: p-bromophenyl] | < 50 |
| O=C(Nc1cccc(C(F)(F)F)c1)Nc1nc2ccccc2[nH]1 [Table 1: m-trifluoromethylphenyl, H] | 100 |
| Cc1ccc2[nH]c(NC(=O)Nc3cccc4ccccc34)nc2c1 [Table 4: α-naphthyl, CH3] | < 0.4 |
| O=C(Nc1nc2ccccc2s1)Nc1ccccc1F [Table 11: o-fluorophenyl, H, S] | < 6.2 |
| Cc1ccccc1NC(=O)Nc1nc2c(ccc3ccccc32)s1 [Table 14: o-tolyl] | < 1.6 |
| CCOC(=O)c1ccc2[nH]c(NC(=O)Nc3cccc(C)c3)nc2c1 [Table 3: m-tolyl] | < 12.5 |
| COc1ccc2nc(NC(=O)Nc3ccc(C)cc3)sc2c1 [Table 11: p-tolyl, 6-CH3 O, S] | < 100 |
| O=C(Nc1cccc(Cl)c1)Nc1nc2cc(Cl)ccc2o1 [Table 11: m-chlorophenyl, 5-Cl, O] | 400 |
| O=C(Nc1ccc(Cl)cc1)Nc1nc2cc(Cl)ccc2[nH]1 [Table 2: p-chlorophenyl] | 6.2 |
| COc1ccccc1NC(=O)Nc1nc2cc(Cl)ccc2[nH]1 [Table 2: o-anisyl] | < 6.2 |
| CN(C(=O)Nc1ccc(Cl)cc1)c1nc2ccccc2s1 [Table 12: p-chlorophenyl] | < 50 |
| CN(C(=O)Nc1ccccc1)c1nc2ccccc2[nH]1 [Table 7: phenyl, H] | 50 |
